Paper PMC4275348 (Molecular microbiology, 2014)
Residue numbers refer to the chain shown, from its start.

Columns and labels:
WT LuxN = WT LuxN (Vibrio campbellii, UniProt A7MRY4); conditions: XK006 carrying WT luxN
LuxN^H210Q = biological target: T1, LuxN^H210Q (Vibrio campbellii, UniProt A7MRY4, H210Q); assay: Bioluminescence of V. harveyi XK006 carrying luxN H210Q; type: cell-based, Vibrio harveyi; conditions: 1 μM AHL
T1 sequence (A7MRY4 1-849 H210Q): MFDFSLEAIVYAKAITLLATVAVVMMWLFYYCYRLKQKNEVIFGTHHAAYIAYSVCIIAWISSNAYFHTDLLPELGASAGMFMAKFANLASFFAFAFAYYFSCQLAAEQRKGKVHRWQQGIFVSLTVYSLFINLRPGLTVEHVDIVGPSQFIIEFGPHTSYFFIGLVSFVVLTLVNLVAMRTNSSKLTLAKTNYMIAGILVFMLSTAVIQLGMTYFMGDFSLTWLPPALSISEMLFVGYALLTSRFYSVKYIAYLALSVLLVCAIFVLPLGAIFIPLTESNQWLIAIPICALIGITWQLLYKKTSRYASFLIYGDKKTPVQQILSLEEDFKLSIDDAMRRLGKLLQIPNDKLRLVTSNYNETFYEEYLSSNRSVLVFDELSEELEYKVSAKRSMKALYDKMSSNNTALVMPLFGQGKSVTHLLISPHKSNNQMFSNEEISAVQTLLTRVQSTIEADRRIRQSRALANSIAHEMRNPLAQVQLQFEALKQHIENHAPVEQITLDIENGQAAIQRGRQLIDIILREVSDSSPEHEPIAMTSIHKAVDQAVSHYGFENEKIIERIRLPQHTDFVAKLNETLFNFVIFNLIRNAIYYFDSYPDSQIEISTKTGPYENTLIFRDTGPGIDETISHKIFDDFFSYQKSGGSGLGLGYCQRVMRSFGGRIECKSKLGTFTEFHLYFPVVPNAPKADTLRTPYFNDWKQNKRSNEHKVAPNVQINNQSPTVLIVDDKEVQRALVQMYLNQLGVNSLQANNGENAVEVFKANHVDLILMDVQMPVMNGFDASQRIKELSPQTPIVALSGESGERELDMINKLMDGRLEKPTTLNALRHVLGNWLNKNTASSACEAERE

LuxN^H210T = biological target: T2, LuxN^H210T (Vibrio campbellii, UniProt A7MRY4, H210T); assay: Bioluminescence of V. harveyi XK006 carrying luxN H210T; type: cell-based, Vibrio harveyi; conditions: 1 μM AHL
T2 sequence (A7MRY4 1-849 H210T): T1 sequence (A7MRY4 1-849 H210Q) with Q210T

Kin^off LuxN mutants = assay: Bioluminescence of V. harveyi XK847 harboring Kin^off luxN alleles; type: cell-based, Vibrio harveyi
LuxN [1] = biological target: T3, LuxN (Vibrio campbellii, UniProt A7MRY4); conditions: 1 μM AHL; V. harveyi TL25
luxN^S184I/S230P = biological target: T4, luxN^S184I/S230P (Vibrio campbellii, UniProt A7MRY4, S184I/S230P); assay: Bioluminescence of V. harveyi XK006 carrying luxN S184I/S230P; type: cell-based, Vibrio harveyi; conditions: 10 μM 3O-C10 HSL
T4 sequence (A7MRY4 1-849 S184I/S230P): T1 sequence (A7MRY4 1-849 H210Q) with S184I, Q210H, S230P

luxN^T159I/Y193K = biological target: T5, luxN^T159I/Y193K (Vibrio campbellii, UniProt A7MRY4, N193K/T159I); assay: Bioluminescence of V. harveyi XK006 carrying luxN T159I/Y193K; type: cell-based, Vibrio harveyi; conditions: 10 μM 3O-C10 HSL
T5 sequence (A7MRY4 1-849 T159I/N193K): T1 sequence (A7MRY4 1-849 H210Q) with T159I, N193K, Q210H

luxN^S230P = luxN^S230P (Vibrio campbellii, UniProt A7MRY4, S230P); conditions: 10 μM 3O-C10 HSL
LuxN [2] = biological target: T3, LuxN; type: cell-based, Vibrio harveyi; conditions: 1 μM AHL with 20 nM AI-1; V. harveyi TL25
WT AinR = assay: Bioluminescence of V. harveyi XK006 harboring WT V. fischeri ainR; type: cell-based, Vibrio fischeri; conditions: AHLs added at 1 μM
AinR^Q204H = assay: Bioluminescence of V. harveyi XK006 harboring ainR Q204H; type: cell-based, Vibrio fischeri
LuxN^L166A = LuxN^L166A (Vibrio campbellii, UniProt A7MRY4, L166A)
luxN^L166A/H210N = luxN^L166A/H210N (Vibrio campbellii, UniProt A7MRY4, H210N/L166A); conditions: AHLs added at 1 μM
[3] = biological target: LuxN^L166A mutant with Ser209 (Vibrio campbellii, UniProt A7MRY4, I209S/L166A); conditions: AHLs added at 1 μM

Question: Which “response (dose-dependent light production)” value (WT LuxN) does the source give for `C[C@@H](O)CC(=O)N[C@H]1CCOC1=O` [(S)-3OH-C4 HSL] here?
Answer: Its value is “did not respond”.

Question: `CCCC(=O)N[C@H]1CCOC1=O` [C4 HSL] was tested. Which “induction of light production” value (LuxN^H210Q) did it give?
Answer: The value was 30 fold.

Question: And the “induction of light production” value (LuxN^H210T)?
Answer: The value was 100 fold.

Question: And the “light production / detection” value (Kin^off LuxN mutants)?
Answer: Its value is “also detected”.

Question: What about the “induction of light production” value (LuxN [1]) of the same compound?
Answer: Its value is “did not induce light production”.

Question: With `CCCCCCCC(=O)CC(=O)N[C@H]1CCOC1=O` [3O-C10 HSL] as the compound, how does the “increase in light production” value (luxN^S184I/S230P) read?
Answer: The value was 10 fold.

Question: What about the “increase in light production” value (luxN^T159I/Y193K) of the same compound?
Answer: The value was 20 fold.

Question: And the “induction of light production” value (luxN^S230P)?
Answer: The value was 20 fold.

Question: With `CCCCCC(O)CC(=O)N[C@H]1CCOC1=O` (some centres unmarked) [3OH-C8 HSL] as the compound, how does the “reduction in light production” value (LuxN [2]) read?
Answer: The value was “five-fold”.

Question: And the light production (WT AinR)?
Answer: Its light production is “light production was induced”.

Question: And the “detection (light production)” value (AinR^Q204H)?
Answer: Its value is “lost the ability to detect”.

Question: What about the “detection (light production)” value (LuxN^L166A) of the same compound?
Answer: The value was “robustly detects”.

Question: And the light production (luxN^L166A/H210N)?
Answer: Its light production is “Significantly less light”.

Question: What about the “ligand detection (light production)” value [3] of the same compound?
Answer: Its value is “restricted to 3OH-C8 HSL”.
